Laboratory results published in patent US9884040B2, “Desethylamiodarone for use in cancer treatment” (PÉCSI TUDOMÁNYEGYETEM, priority 2015, dated 2018).

Key:
[1] = tested on: DU-145 prostate cancer cell line; experiment: MTT cell viability assay, DU-145; type: cell-based; settings: increasing concentrations, 24, 48 and 72 hours
Protocol: (§1) The cells were seeded into 96-well plates at a starting density of 10^4 cells per well and cultured overnight before DEA was added to the medium for 24 h and 48 h. The medium was changed to a fresh one containing 0.5% of 3-[4,5-dimethylthiazol-2-yl]-2,5-diphenyl-tetrazolium bromide (MTT+) for an additional 3 hours, then the MTT+ reaction was terminated by adding HCl to 10 mM final concentration. The amount of blue formazan dye formed from MTT+ was proportional to the number of live cells, and was determined with an Anthos Labtech 2010 ELISA reader at 550 nm. All experiments were run in at least 4 replicates and repeated 3 times.
145 cells were exposed to increasing concentrations of DEA for 24, 48 and 72 hours. Viability of the cells was detected by the MTT method. Untreated cells served as controls.

[2] = repetitive exposures; cited from earlier work
[3] = tested on: GSK-3β; experiment: Western blot of GSK-3β phosphorylation; type: cell-based, human; settings: 5-10-15 μM, 6 hours; T24, B16F10 cell lines
Protocol: 10^6 cells were seeded into regular plates and treated as for the cell viability assay. Cells were harvested at intervals in a chilled lysis buffer containing 0.5 mM sodium-metavanadate, 1 mM ethylenediaminetetraacetic acid (EDTA) and protease inhibitor cocktail in phosphate-buffered saline (PBS). Probes were boiled and subjected to 10% sodium dodecyl sulphate polyacrylamide gel electrophoresis then transferred to nitrocellulose membranes. The membranes were blocked in 5% low fat milk for 1.5 h at room temperature then exposed to primary antibodies at 4° C. overnight in blocking solution. Appropriate horseradish peroxidase-conjugated secondary antibodies were used at a 1:5000 dilution (anti-mouse and anti-rabbit IgGs; Sigma-Aldrich, Steinheim, Germany) and visualized by enhanced chemiluminescence (Amersham Biosciences, Piscataway, N.J., USA). All experiments were repeated 3 times.
To determine the downstream consequences of DEA treatment, we examined the phosphorylation status of AKT (protein kinase B), GSK-3β and p42/44 mitogen-activated protein kinase (MAPK) (ERK1/2) by immunoblotting in T24 (human urinary bladder carcinoma), B16F10 (mice melanoma) cell lines. Cells were cultured in the presence of 5-10-15 μM DEA for 6 hours. The cells were prepared and western blot analysis was carried out to perform both phosphorylated and non-phosphorylated forms of the previously listed proteins. […]

[4] = tested on: B16F10 melanoma lung metastasis; experiment: Mouse model of B16F10 lung metastasis; type: in vivo, C57BL/6 mice
Protocol: To produce experimental metastasis model, male C57BL/6 mice (6 weeks old) were used. B16F10 cells ([…]/0.1 ml) were injected into the lateral tail vein of C57BL/6 mice, using a 30G1/2 needle and a 1-mL syringe. Mice were randomly divided into 3 groups of 6 mice each. Each mouse was given a daily intragastric injection of either 100 μl 15% ethanol solution as the vehicle control or 25 mg/kg DEA. Treatment was started 1 day before cell injection and was given every third day, lasted for consecutive 16 days Sixteen days after injection, the animals were weighed and killed. The lungs were removed, rinsed in PBS, and weighed. The lung weight index was calculated as the ratio of lung weight vs body weight. The harvested lungs were fixed in 4% formalin. Tumor foci on the surfaces of the lungs were counted under a stereomicroscope. Then, the whole lung was embedded in optimum cutting temperature compound (Sakura Finetek, SA), sectioned ([…], 5 levels), and stained with hematoxylin and eosin (H&E) according to routine protocols. […] The percentage of total area of the stained sections occupied by tumor was measured using the Panoramic viewer 1.15.4 (3[…], Hungary) Murine melanoma B16F10 cells were injected into the lateral tail vein of 6-weeks-old male C57BL/6 mice and divided into two groups (6 mice/group). […] Lungs were photographed (FIG. 9 A,B), weighted and lung weight index was calculated as the ratio of lung weight versus body weight of host mice, and was compared between the two groups. […] Metastatic nodules on lung surface were counted. […] 24 h after injection of melanoma B16F10 cells, mice in the control group were treated with vehicle (alcohol), mice in the treatment group were injected with desethylamiodarone (25 mg/kg, i.p., every 3rd day.) After 16 day's mice were sacrificed and then analyzed. […] Lung weight was determined and lung weight index was calculated (C). Tumor growth was monitored also by counting the tumor nodules (D). […] Lung tissue sections were analyzed histopathological after H & E staining. […]

[5] = tested on: MCF 7 breast cancer cells; experiment: Radiotherapy plus DEA, MTT viability, MCF 7; type: cell-based; settings: 2Gy, 24, 48 and 72 hours, increasing DEA
Protocol: as §1
MCF 7 cells were exposed to 2Gy irradiation for 24, 48 and 72 hours in presence or absence of increasing concentration of DEA. Viability of the cells was detected by the MTT method. Untreated cells served as controls.

[6] = 25 mg/kg i.p. every 3rd day, day 16, B16F10 tail vein injection

CCCCc1oc2ccccc2c1C(=O)c1cc(I)c(OCCNCC)c(I)c1 [DEA, (2-butyl-3-benzofuranyl)[4-[2-(ethylamino)ethoxy]-3,5-diiodophenyl]-methanone]
Viability of DU-145 cells (MTT) [1]: induces cell death
Drug accumulation in cell cultures [2]: always higher than that of AM
GSK-3β phosphorylation [3]: decreased the phosphorylation of GSK-3β
Lung weight index (lung weight versus body weight) [4, 6]: significantly *P<0.001 inhibited lung weight increase
Number of tumor nodules on lung surface [4, 6]: dramatically decrease in the number of tumor nodules
Percentage of tumor area over lung section area (H&E) ([4]; 25 mg/kg/3 days, n=6 per group): significantly decreased
Radiosensitization, viability of MCF 7 (MTT) [5]: sensitize MCF 7 breast cancer cells to irradiation
